Type in all cases: functional
In test [1] the test system is Pyricularia oryzae. Kind of test: Antifungal activity against Magnaporthe oryzae assessed as inhibition of germ tube growth at 1 to 5 ug/ml relative to control.
Test [2] relates to Oryza sativa. Kind of test: Induction of phytoalexin formation in suspension-cultured Oryza sativa (rice) cells assessed as accumulation of intracellular momilactone B at 10 ug/ml after 48 hr by GC/GC-MS analysis.
Test [3] concerns Oryza sativa. Kind of test: Induction of phytoalexin formation in suspension-cultured Oryza sativa (rice) cells assessed as accumulation of momilactone A in culture medium at 0.7 x 10^-9 to 0.7 x 10^-6 M after 24 hr by GC/GC-MS analysis.
The test system of test [4] is Oryza sativa. Kind of test: Induction of phytoalexin formation in suspension-cultured Oryza sativa (rice) cells assessed as accumulation of momilactone A in culture medium at 0.7 x 10^-9 to 0.7 x 10^-6 M after 48 hr by GC/GC-MS analysis.
For test [5], the system named is Oryza sativa. As to the kind of experiment: Induction of phytoalexin formation in suspension-cultured Oryza sativa (rice) cells assessed as accumulation of momilactone A in culture medium at 0.7 x 10^-9 to 0.7 x 10^-6 M after 72 hr by GC/GC-MS analysis.
The subject of test [6] is Oryza sativa. As to the kind of experiment: Induction of phytoalexin formation in suspension-cultured Oryza sativa (rice) cells assessed as accumulation of intracellular momilactone A at 0.7 x 10^-9 to 0.7 x 10^-6 M after 24 hr by GC/GC-MS analysis.
In test [7] the test system is Oryza sativa. Kind of test: Induction of phytoalexin formation in suspension-cultured Oryza sativa (rice) cells assessed as accumulation of intracellular momilactone A at 0.7 x 10^-9 to 0.7 x 10^-6 M after 48 hr by GC/GC-MS analysis.
In test [8] the test system is Oryza sativa. As to the kind of experiment: Induction of phytoalexin formation in suspension-cultured Oryza sativa (rice) cells assessed as accumulation of intracellular momilactone A at 0.7 x 10^-9 to 0.7 x 10^-6 M after 72 hr by GC/GC-MS analysis.

From ChEMBL document CHEMBL3046267, “Induction of Phytoalexin Formation in Suspension-cultured Rice Cells byN-Acetyl-chitooligosaccharides” (1993) come the findings set out here.

Activity calls are given as the source filed them. The calls are words filed in the database; no cut-off is given here.

Take `C=C[C@]1(C)CC[C@@H]2C(=C[C@H]3OC(=O)[C@@]4(C)C(=O)CC[C@@]2(C)[C@@H]34)C1` [MOMILACTONE A]: the “growth inhibition (GI)” value in test [1] was 50%.
Take `C=C[C@]1(C)CC[C@@H]2C(=C[C@H]3OC(=O)[C@]4(C)[C@H]3[C@]23CC[C@@]4(O)OC3)C1` [MOMILACTONE B]: the “growth inhibition (GI)” value in test [1] worked out at 50%.
Turning to `CC(=O)N[C@H]1[C@H](O[C@@H]([C@H](O)[C@H](C=O)NC(C)=O)[C@H](O)CO)O[C@H](CO)[C@@H](O[C@@H]2O[C@H](CO)[C@@H](O[C@@H]3O[C@H](CO)[C@@H](O[C@@H]4O[C@H](CO)[C@@H](O[C@@H]5O[C@H](CO)[C@@H](O[C@@H]6O[C@H](CO)[C@@H](O)[C@H](O)[C@H]6NC(C)=O)[C@H](O)[C@H]5NC(C)=O)[C@H](O)[C@H]4NC(C)=O)[C@H](O)[C@H]3NC(C)=O)[C@H](O)[C@H]2NC(C)=O)[C@@H]1O` [N-ACETYLCHITOHEPTAOSE], the outcome in test [2] was Active. Further, the Activity in test [3] is 24 µg/g; in test [4] it was 161 µg/g; in test [5] it was 149 µg/g; in test [6] it was 16 µg/g; in test [7], 41 µg/g; in test [8], 56 µg/g.
